Activity calls are given as the source filed them. The calls are words filed in the database; no cut-off is given here.
Legend:
[1] = AUC (0 to t) in Sprague-Dawley rat at 1 mg/kg, iv by LC-MS analysis; format: ADME, organism-based; design: dose 1 mg/kg; details: in vivo
[2] = biological target: T1, Vascular endothelial growth factor receptor 3 (Homo sapiens, UniProt P35916); assay: Inhibition of VEGFR3 in human MDA-MB-231 cells assessed as inhibition of AKT phosphorylation at 2.5 uM incubated for 24 hrs by Western blot analysis; format: cell-based
T1 sequence (P35916 whole entry): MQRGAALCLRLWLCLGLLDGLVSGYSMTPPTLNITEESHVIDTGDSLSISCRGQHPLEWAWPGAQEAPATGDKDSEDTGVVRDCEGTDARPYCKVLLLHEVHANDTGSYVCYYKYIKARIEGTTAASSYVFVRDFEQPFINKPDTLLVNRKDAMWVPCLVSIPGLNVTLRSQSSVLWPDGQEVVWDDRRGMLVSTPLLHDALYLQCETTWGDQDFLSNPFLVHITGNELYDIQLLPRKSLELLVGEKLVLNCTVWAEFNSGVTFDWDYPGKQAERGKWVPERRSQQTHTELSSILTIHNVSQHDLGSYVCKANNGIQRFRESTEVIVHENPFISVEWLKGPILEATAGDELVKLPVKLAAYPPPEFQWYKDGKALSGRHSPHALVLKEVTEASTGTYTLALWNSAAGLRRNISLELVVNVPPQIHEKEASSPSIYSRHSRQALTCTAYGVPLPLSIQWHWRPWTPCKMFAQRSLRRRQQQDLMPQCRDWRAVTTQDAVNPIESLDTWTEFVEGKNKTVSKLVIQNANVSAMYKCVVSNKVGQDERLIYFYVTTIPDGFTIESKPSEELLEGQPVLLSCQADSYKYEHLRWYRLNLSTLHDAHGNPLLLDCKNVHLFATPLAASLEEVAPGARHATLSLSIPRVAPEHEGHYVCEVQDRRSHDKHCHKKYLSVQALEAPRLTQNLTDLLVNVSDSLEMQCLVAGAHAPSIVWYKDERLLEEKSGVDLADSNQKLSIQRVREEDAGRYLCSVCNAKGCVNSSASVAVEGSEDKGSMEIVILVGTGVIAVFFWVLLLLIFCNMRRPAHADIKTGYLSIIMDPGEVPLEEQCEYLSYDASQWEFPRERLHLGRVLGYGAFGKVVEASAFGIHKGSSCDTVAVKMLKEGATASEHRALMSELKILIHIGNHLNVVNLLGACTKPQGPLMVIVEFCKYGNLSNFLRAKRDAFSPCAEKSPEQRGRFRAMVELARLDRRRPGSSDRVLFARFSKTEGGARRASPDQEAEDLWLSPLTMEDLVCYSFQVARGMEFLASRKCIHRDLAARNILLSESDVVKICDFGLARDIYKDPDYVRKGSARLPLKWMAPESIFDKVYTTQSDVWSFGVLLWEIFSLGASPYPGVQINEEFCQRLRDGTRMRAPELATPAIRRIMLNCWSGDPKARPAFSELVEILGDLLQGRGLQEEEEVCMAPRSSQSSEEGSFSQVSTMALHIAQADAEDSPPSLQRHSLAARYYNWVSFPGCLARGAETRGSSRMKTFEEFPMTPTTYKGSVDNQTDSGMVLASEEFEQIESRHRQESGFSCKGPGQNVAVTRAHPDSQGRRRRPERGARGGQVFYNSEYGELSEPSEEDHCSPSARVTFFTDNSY

[3] = Half life in Sprague-Dawley rat at 10 mg/kg, po by LC-MS analysis; format: ADME, organism-based; details: in vivo
MDA-MB-231 [4] = assay: Antimigratory activity against human MDA-MB-231 cells assessed as suppression of migration measured after 24 hrs by Wound healing assay; format: functional, cell-based
[5] = biological target: T1, Vascular endothelial growth factor receptor 3; assay: Inhibition of VEGFR3 in human dermal lymphatic endothelial cells assessed as inhibition of STAT5 phosphorylation incubated for 24 hrs by Western blot analysis; details: HDLEC
HDLEC [6] = assay: Anti-lymphangiogenic activity against human dermal lymphatic endothelial cells assessed as inhibition of VEGF-C-mediated tube formation at 100 nM incubated for 12 hrs by inverted microscopy; format: functional, tissue-based
[7] = Toxicity in BALB/c mouse xenografted with MDA-MB-231 cells assessed as creatinine level in blood at 300 mg/kg, po; format: organism-based; details: in vivo
MDA-MB-231 [8] = assay: Induction of apoptosis in human MDA-MB-231 cells assessed as increase in apoptotic cells incubated for 24 hrs by Hoechst 33258 staining under a fluorescence microscopy; format: functional, cell-based
MDA-MB-231 [9] = assay: Induction of apoptosis in human MDA-MB-231 cells assessed as upregulation of caspase 3 up to 10 uM incubated for 24 hrs by Western blotting analysis; format: functional, cell-based; details: dose microM <=10, time 24.0 hrs
[10] = biological target: Tyrosine-protein kinase BTK (Homo sapiens, UniProt Q06187); assay: Inhibition of human BTK assessed as residual kinase activity at 1 uM relative to control
Chain of Tyrosine-protein kinase BTK (Q06187 whole entry): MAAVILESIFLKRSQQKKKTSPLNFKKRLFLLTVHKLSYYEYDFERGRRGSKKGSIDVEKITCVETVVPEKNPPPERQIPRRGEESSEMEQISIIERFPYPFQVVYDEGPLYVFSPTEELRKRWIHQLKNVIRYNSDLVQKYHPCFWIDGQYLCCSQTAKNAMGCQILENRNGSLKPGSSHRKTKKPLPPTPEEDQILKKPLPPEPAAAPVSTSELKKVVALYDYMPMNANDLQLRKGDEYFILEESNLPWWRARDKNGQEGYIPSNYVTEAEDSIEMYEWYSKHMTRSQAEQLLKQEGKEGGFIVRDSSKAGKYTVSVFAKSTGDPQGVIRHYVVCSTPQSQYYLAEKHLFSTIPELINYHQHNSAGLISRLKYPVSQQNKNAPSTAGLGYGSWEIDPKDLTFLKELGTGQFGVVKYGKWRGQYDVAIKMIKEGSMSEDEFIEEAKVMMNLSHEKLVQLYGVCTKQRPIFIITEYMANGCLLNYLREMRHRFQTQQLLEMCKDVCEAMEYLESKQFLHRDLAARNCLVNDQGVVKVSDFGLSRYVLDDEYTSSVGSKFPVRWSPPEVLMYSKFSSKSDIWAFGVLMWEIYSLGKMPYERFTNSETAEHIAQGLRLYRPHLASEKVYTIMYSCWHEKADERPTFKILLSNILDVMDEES

[11] = AUC (0 to t) in Sprague-Dawley rat at 10 mg/kg, po by LC-MS analysis; format: ADME, organism-based; design: dose 10 mg/kg; details: in vivo
MDA-MB-231 [12] = assay: Anticancer activity against human MDA-MB-231 cells assessed as cell viability incubated for 48 hrs by MTT assay; details: MDA-MB-231, 48 h
MDA-MB-436 [13] = assay: Antimigratory activity against human MDA-MB-436 cells assessed as reduction in cell migration incubated for 12 hrs by transwell assay; format: functional, cell-based
HDLEC [14] = assay: Upregulation of E-cadherin protein expression in human dermal lymphatic endothelial cells incubated for 24 hrs by Western blot analysis; format: functional
Mus musculus [15] = assay: Decrease in Ki-67 level in BALB/c mouse xenografted with MDA-MB-231 cells in tumor tissue at 25 mg/kg, po by immunohistochemistry analysis; format: functional, organism-based
MDA-MB-436 [16] = assay: Induction of apoptosis in human MDA-MB-436 cells assessed as increase in apoptotic cells incubated for 24 hrs by Hoechst 33258 staining under a fluorescence microscopy; format: functional, cell-based
MDA-MB-436 [17] = assay: Induction of apoptosis in human MDA-MB-436 cells assessed as downregulation of Bcl2 expression up to 10 uM incubated for 24 hrs by Western blotting analysis; format: functional, cell-based; details: dose microM <=10, time 24.0 hrs
[18] = biological target: Vascular endothelial growth factor receptor 3 (Mus musculus) (UniProt P35917); assay: In vivo inhibition of VEGFR3 phosphorylation in BALB/c mouse xenografted with MDA-MB-231 cells assessed as decrease in ERK1/2 phosphorylation at 25 mg/kg, po by immunohistochemistry analysis; format: functional, organism-based
Chain of Vascular endothelial growth factor receptor 3 (Mus musculus) (P35917 whole entry): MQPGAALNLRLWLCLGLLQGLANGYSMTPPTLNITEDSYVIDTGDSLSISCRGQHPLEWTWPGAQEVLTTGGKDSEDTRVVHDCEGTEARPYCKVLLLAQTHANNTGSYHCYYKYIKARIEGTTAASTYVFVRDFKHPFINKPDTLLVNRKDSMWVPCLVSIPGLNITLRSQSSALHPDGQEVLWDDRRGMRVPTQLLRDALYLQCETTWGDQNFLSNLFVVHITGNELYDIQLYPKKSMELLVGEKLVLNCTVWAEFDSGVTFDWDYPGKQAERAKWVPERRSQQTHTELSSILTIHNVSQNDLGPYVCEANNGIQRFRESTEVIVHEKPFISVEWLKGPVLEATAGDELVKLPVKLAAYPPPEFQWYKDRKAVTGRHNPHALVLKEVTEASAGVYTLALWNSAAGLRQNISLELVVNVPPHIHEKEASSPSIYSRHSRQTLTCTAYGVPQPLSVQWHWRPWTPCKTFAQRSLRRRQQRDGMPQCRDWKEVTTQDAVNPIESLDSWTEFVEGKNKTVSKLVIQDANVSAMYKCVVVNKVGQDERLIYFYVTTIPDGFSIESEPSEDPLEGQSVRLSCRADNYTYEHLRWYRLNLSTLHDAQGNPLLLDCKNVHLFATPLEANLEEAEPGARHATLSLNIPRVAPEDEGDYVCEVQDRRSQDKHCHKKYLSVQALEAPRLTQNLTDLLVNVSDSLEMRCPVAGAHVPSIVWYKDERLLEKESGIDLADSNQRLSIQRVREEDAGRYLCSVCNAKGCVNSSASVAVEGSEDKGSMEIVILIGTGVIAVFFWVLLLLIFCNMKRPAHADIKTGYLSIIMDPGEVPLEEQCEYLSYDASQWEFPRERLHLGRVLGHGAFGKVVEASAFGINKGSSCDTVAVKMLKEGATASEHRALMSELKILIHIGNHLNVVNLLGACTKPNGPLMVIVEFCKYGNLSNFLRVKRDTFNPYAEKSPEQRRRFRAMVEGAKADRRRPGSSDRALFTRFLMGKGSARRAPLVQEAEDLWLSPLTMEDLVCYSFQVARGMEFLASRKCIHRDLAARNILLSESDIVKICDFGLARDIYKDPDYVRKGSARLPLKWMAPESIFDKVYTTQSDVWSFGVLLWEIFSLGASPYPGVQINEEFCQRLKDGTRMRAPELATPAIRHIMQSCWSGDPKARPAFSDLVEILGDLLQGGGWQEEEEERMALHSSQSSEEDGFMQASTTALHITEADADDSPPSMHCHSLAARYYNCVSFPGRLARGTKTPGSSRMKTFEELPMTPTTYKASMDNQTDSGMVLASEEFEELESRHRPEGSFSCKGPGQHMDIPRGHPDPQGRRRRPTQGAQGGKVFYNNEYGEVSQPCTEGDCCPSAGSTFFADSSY

MDA-MB-436 [19] = assay: Induction of apoptosis in human MDA-MB-436 cells assessed as apoptotic cells at 5 uM incubated for 48 hrs by flow cytometry; format: functional
[20] = biological target: T1, Vascular endothelial growth factor receptor 3; assay: Inhibition of VEGFR3 in human MDA-MB-436 cells assessed as inhibition of ERK1/2 phosphorylation at 2.5 uM incubated for 24 hrs by Western blot analysis; format: cell-based
Mus musculus [21] = assay: Decrease in E-cadherin level in BALB/c mouse xenografted with MDA-MB-231 cells in tumor tissue at 25 mg/kg, po by immunohistochemistry analysis; format: functional, organism-based
[22] = biological target: Maternal embryonic leucine zipper kinase (Homo sapiens, UniProt Q14680); assay: Inhibition of human MELK assessed as residual kinase activity at 1 uM relative to control
Chain of Maternal embryonic leucine zipper kinase (Q14680 whole entry, looked up): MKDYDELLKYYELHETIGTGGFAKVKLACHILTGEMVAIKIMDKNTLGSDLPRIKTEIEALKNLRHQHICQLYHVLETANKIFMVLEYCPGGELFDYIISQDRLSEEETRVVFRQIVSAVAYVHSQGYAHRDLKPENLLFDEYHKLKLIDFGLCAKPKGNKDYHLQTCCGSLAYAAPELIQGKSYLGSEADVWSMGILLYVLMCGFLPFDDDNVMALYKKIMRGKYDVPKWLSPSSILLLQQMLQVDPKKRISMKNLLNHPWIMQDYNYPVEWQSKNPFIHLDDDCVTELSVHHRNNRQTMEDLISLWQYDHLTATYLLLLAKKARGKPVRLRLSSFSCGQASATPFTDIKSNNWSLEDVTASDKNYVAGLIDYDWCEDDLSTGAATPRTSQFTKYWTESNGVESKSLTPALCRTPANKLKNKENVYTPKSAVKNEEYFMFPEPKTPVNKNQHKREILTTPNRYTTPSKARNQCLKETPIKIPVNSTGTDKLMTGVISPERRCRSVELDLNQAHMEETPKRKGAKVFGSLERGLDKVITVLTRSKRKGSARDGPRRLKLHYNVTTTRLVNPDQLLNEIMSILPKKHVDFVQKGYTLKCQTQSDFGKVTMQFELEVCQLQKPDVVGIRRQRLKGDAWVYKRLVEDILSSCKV

[23] = biological target: T1, Vascular endothelial growth factor receptor 3; assay: Inhibition of VEGFR3 in human dermal lymphatic endothelial cells assessed as inhibition of AKT phosphorylation incubated for 24 hrs by Western blot analysis; format: tissue-based; details: HDLEC
MDA-MB-231 [24] = assay: Induction of apoptosis in human MDA-MB-231 cells assessed as downregulation of Bcl2 expression up to 10 uM incubated for 24 hrs by Western blotting analysis; format: functional, cell-based; details: dose microM <=10, time 24.0 hrs
MDA-MB-231 [25] = assay: Induction of apoptosis in human MDA-MB-231 cells assessed as cleaved caspase 3 up to 10 uM incubated for 24 hrs by Western blotting analysis; format: functional, cell-based; details: dose microM <=10, time 24.0 hrs
[26] = Half life in Sprague-Dawley rat at 1 mg/kg, iv by LC-MS analysis; format: ADME, organism-based; details: in vivo
[27] = biological target: Vascular endothelial growth factor receptor 3 (Mus musculus) (UniProt P35917); assay: In vivo inhibition of VEGFR3 phosphorylation in BALB/c mouse xenografted with MDA-MB-231 cells assessed as decrease in STAT5 phosphorylation at 25 mg/kg, po by immunohistochemistry analysis; format: functional, organism-based
MDA-MB-436 [28] = assay: Induction of apoptosis in human MDA-MB-436 cells assessed as upregulation of Bax expression up to 10 uM incubated for 24 hrs by Western blotting analysis; format: functional, cell-based; details: dose microM <=10, time 24.0 hrs
[29] = biological target: T1, Vascular endothelial growth factor receptor 3; assay: Inhibition of VEGFR3 phosphorylation in human MDA-MB-231 cells at 2.5 uM incubated for 24 hrs by Western blot analysis; format: cell-based
Mus musculus [30] = assay: Downregulation of MMP2 protein expression human MDA-MB-231 cells injected into vein of BALB/c mouse lung metastatic model at 50 mg/kg, po once a day measured on day 21 by […]; format: functional, organism-based
[31] = biological target: T1, Vascular endothelial growth factor receptor 3; assay: Inhibition of human FLT4/VEGFR3 assessed as residual kinase activity at 1 uM relative to control
MDA-MB-436 [32] = assay: Upregulation of E-cadherin protein expression in human MDA-MB-436 cells up to 10 uM incubated for 24 hrs by Western blot analysis; format: functional, cell-based; details: dose microM <=10, time 24.0 hrs
[33] = biological target: T1, Vascular endothelial growth factor receptor 3; assay: Inhibition of VEGFR3 in human MDA-MB-436 cells assessed as inhibition of STAT5 phosphorylation at 2.5 uM incubated for 24 hrs by Western blot analysis; format: cell-based
Danio rerio = organism: Danio rerio; assay: Antiangiogenesis activity against transgenic zebrafish with GFP-labeled vascular endothelial cells assessed as inhibition of subintestinal vessels at 10 uM incubated for 24 hrs by fluorescence microscopy; format: functional, organism-based
HDLEC [34] = assay: Antimigratory activity against VEGF-C-induced human dermal lymphatic endothelial cells assessed as cell migration at 100 nM incubated for 12 hrs by inverted microscopy based by transwell assay; format: functional, tissue-based
MDA-MB-231 [35] = assay: Induction of apoptosis in human MDA-MB-231 cells assessed as accumulation at G1 phase incubated for 48 hrs by flow cytometry; format: functional, cell-based
[36] = Toxicity in BALB/c mouse xenografted with MDA-MB-231 cells assessed as change in spleen at 300 mg/kg, po by hematoxylin and eosin staining based analysis; format: organism-based; details: in vivo
[37] = Antiproliferative activity against VEGF-D-induced human dermal lymphatic endothelial cells assessed as cell viability incubated for 48 hrs by CCK-8 assay; format: functional, tissue-based; details: HDLEC
[38] = Cmax in Sprague-Dawley rat at 1 mg/kg, iv by LC-MS analysis; format: ADME, organism-based; design: route intravenous, dose 1 mg/kg; details: in vivo

## CN1CCN(c2ccc(-c3cc4c(N5CCN(C(=O)Nc6ccc(Cl)c(C(F)(F)F)c6)CC5)ncnc4s3)cc2)CC1
[1]
  AUC(0-t): 2570 ng·h/mL
[2]
  inhibition: Active
[3]
  half-life: 16 h
MDA-MB-231 [4]
  Activity: Active
[5]
  inhibition: Dose-Dependent Effect
HDLEC [6]
  Activity: Active
[7]
  Activity: Non-Toxic
MDA-MB-231 [8]
  Activity: Dose-Dependent Effect
MDA-MB-231 [9]
  Activity: Active
[10]
  Activity: 19%
[11]
  AUC(0-t): 9220 ng·h/mL
MDA-MB-231 [12]
  IC50: 2.22 µM
MDA-MB-436 [13]
  Activity: Active
HDLEC [14]
  Activity: Active
Mus musculus [15]
  Activity: Active
MDA-MB-436 [16]
  Activity: Dose-Dependent Effect
MDA-MB-436 [17]
  Activity: Active
[18]
  Activity: Active
MDA-MB-436 [19]
  Activity: 36.7%
[20]
  inhibition: Active
Mus musculus [21]
  Activity: Active
[22]
  Activity: 17%
[23]
  inhibition: Dose-Dependent Effect
MDA-MB-231 [24]
  Activity: Active
MDA-MB-231 [25]
  Activity: Active
[26]
  half-life: 13.1 h
[27]
  Activity: Active
MDA-MB-436 [28]
  Activity: Active
[29]
  inhibition: Active
Mus musculus [30]
  Activity: Active
[31]
  Activity: 0%
MDA-MB-436 [32]
  Activity: Active
[33]
  inhibition: Active
Danio rerio
  inhibition: Active
HDLEC [34]
  Activity: Active
MDA-MB-231 [35]
  Activity: Dose-Dependent Effect
[36]
  Activity: Non-Toxic
[37]
  IC50: 0.68 µM
[38]
  Cmax: 420 ng/mL

Reference: ChEMBL document CHEMBL4837240 (J Med Chem, 2021)
